Tests used:
[1] = elog D7.4 by chromatographic (HPLC) method; type: physicochemical; conditions: Polaris C18-A column, pH 7.4, read-out: elog D7.4 (experimental distribution coefficient at pH 7.4)
Protocol: Supplementary Information: Physical Chemistry
N. Molecular Descriptor Calculation […]
O. Physicochemical Measurements
The determination of the elog D7.4 values was performed by a chromatographic method according to […]
The column was a Polaris C18-A column (2 mm I.D., 50 mm length, 3 μm particle size) from Agilent Technologies. A linear mobile phase gradient was applied with […] TRIS buffer adjusted to pH 7.4 and MeCN. Therefore, the gradient was run from 5% […]
between the runs with a constant flow-rate of 0.8 ml/min and a temperature of 25 °C. The output wavelength of the detector was set to 269.5 nm. In order to calibrate the log D7.4 to the retention time, 6 different drugs with known log D7.4 were dissolved in DMSO and 10 µl were injected […]
Approximately 1 mg of the samples was dissolved in DMSO and 5 µl were injected. Analyses were conducted in duplicates. Subsequently, the mean retention times of the analytes were taken to calculate their log D7.4 values with aid of the calibration line.

CDK4 = target: T1, CDK4 (Homo sapiens, UniProt P11802); experiment: CDK4 degradation, western blot of MM.1S cells; type: cell-based; conditions: MM1.S; 0.1 μM, 16 h, MM.1S cells, normalized to DMSO (100%); read-out: D CDK4: remaining CDK4 levels
T1 construct: Percentage values are normalized to DMSO-treated MM.1S cells and the respective loading controls; endogenous in cells; host or cells: MM.1S (human multiple myeloma)
T1 sequence (P11802 whole entry): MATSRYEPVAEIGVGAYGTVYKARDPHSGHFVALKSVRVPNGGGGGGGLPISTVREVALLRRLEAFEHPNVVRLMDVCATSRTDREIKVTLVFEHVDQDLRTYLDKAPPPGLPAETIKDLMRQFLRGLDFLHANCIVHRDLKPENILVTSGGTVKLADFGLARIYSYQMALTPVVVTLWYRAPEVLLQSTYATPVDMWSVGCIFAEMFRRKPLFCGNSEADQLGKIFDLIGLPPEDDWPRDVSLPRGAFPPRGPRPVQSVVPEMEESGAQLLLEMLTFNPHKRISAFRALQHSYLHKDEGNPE
Text: (§1) We determined the concentration of both kinases and CRBN, the latter in order to control the expression of the corresponding ligase. Since IMiDs, such as pomalidomide, cause the degradation of the lymphoid transcription factors Ikaros (IKZF1) and Aiolos (IKZF3) through the involvement of CRBN,[53],[54] this undesired effect was inspected. […] As further characteristics of CDK4/6d, the desired selectivity of CDK6 over CDK4 degradation and the unwanted influence on the IKZF1 concentration were determined. […] Next, we determined the concentration- and time-dependent activity of 11 (Fig. S2, ESI ^†).
(§2) Multiple myeloma, leukaemia, and murine cell lines:
(§3) After respective designated treatments, cells were washed with 1× PBS and lysed in IP lysis buffer (Pierce) containing HALT protease and phosphatase inhibitor cocktail (Thermo Scientific). Sodium dodecyl sulfate-polyacrylamide gel electrophoresis (SDS-PAGE) was performed with 5–20 µg of protein loaded per sample. Gel electrophoresis was carried out at a constant voltage. Proteins were transferred onto Immobilon-P transfer membranes (Millipore). Membranes were blocked with 5% milk in Tris Buffered Saline with 0.05% Tween 20 (TBS-T) followed by overnight incubation at 4 °C with shaking in primary antibodies diluted in 5% BSA in TBS-T. After incubation with respective secondary HRP-conjugated antibodies diluted in 5% milk in TBST, detection of proteins was performed using either WesternBright ECL HRP substrate or WesternBright Sirius HRP substrate (Advansta). Chemiluminescence was detected with ChemiDoc™ XRS+ System (Bio-Rad). For further detection of other proteins on the same membrane, membranes were subjected to incubation in Restore Western Blot Stripping Buffer, followed by re-blocking, and further probing of proteins was […]

CDK6 [2] = target: T2, CDK6 (Homo sapiens, UniProt Q00534); experiment: CDK6 degradation, western blot of MM.1S cells; type: cell-based; conditions: MM.1S cells; for Selectivity ratio D CDK4/D CDK6 for the degradation of CDK6 over CDK4 / remaining activity at 0.1 µM: 0.1 μM; for Selectivity ratio D CDK4/D CDK6 for the degradation of CDK6 over CDK4 / remaining activity at 0.1 µM / remaining activity at 1 µM: 16 h; for remaining activity at 0.1 µM / remaining activity at 1 µM: MM1.S, normalized to DMSO (100%), read-out: D CDK6: remaining CDK6 levels
T2 construct: Percentage values are normalized to DMSO-treated MM.1S cells and the respective loading controls; endogenous in cells; host or cells: MM.1S (human multiple myeloma)
T2 sequence (Q00534 whole entry): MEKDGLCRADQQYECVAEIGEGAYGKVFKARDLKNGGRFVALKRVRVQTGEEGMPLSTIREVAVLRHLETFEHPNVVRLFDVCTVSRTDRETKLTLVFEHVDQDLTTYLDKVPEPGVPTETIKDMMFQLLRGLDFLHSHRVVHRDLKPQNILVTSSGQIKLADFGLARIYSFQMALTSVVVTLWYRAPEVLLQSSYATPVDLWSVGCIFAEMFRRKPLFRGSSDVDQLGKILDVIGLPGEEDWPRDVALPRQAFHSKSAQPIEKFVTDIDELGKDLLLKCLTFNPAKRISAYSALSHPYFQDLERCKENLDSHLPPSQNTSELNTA
Text: as §1, §2, §3

IKZF1 = target: T3, IKZF1 (Homo sapiens, UniProt Q13422+Q96SW2); experiment: Neosubstrate IKZF1 degradation, western blot of MM.1S cells; type: cell-based; conditions: MM1.S, 16 h, normalized to DMSO (100%), read-out: D IKZF1: remaining IKZF1 levels;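 further: test concentration 0.1 µM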
T3 construct: endogenous in cells; host or cells: MM.1S (human multiple myeloma)
T3 sequence (Q13422 whole entry): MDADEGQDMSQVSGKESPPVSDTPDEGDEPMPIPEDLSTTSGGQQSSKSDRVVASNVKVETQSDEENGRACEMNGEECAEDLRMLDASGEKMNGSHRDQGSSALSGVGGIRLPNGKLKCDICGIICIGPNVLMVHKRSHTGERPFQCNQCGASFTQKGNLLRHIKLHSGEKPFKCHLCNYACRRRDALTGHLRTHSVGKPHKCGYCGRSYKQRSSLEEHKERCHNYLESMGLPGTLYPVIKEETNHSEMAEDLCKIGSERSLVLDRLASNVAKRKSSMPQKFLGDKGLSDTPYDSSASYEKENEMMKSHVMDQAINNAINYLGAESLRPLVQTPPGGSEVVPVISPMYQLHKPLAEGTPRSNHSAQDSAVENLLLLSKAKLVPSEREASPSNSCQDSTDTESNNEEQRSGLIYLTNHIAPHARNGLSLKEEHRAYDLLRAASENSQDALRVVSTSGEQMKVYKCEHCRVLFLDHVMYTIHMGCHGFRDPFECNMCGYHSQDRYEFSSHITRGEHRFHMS
T3 sequence (Q96SW2 whole entry): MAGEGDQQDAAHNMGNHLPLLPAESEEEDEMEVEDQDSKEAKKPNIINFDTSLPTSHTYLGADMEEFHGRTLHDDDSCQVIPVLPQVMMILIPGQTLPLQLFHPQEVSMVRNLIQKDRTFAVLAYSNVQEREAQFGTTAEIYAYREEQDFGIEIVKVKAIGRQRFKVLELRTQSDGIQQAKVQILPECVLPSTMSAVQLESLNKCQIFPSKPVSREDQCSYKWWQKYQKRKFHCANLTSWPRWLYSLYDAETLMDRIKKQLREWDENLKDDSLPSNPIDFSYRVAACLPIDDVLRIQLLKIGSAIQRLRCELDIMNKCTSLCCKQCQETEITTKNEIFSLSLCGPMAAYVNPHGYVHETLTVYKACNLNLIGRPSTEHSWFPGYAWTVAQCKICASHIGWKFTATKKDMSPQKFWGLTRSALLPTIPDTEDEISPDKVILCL
T3 sequence (Q16531 whole entry partner): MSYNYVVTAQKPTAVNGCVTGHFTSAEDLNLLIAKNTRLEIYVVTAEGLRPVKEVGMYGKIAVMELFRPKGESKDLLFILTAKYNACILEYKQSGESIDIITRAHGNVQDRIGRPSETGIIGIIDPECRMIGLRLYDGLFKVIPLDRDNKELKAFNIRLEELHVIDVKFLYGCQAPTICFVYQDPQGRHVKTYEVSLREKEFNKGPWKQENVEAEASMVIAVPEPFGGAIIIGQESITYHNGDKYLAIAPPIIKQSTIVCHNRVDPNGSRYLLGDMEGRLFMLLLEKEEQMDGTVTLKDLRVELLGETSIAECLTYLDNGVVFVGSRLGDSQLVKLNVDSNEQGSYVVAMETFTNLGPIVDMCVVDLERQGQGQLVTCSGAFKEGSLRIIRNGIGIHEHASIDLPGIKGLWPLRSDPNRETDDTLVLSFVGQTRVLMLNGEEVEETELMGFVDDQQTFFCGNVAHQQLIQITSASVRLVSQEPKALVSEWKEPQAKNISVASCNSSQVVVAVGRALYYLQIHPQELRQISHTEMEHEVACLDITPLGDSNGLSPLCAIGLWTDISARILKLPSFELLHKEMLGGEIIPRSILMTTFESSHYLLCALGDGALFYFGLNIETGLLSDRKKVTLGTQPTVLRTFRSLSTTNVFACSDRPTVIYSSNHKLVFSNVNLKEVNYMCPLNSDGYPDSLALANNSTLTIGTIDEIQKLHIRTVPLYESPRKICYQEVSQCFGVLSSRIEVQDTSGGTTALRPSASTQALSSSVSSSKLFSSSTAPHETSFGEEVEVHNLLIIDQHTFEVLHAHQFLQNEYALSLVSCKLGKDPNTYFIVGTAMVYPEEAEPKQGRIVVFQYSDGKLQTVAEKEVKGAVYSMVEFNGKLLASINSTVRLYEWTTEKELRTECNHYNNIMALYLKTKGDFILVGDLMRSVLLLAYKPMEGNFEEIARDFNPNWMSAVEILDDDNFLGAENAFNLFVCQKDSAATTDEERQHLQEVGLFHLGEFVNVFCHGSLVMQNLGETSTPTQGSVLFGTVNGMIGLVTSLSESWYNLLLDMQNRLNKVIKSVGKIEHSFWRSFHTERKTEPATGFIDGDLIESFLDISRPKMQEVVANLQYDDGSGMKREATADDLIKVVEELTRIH
Text: as §1, §2, §3

CDK6 [3] = target: T4, CDK6 (Mus musculus, UniProt Q64261); experiment: CDK6 degradation in murine cell lines 32D and Ba/F3, western blot; type: cell-based; conditions: 16 h
T4 construct: western blotting experiments with the murine myeloid 32D cell line and the murine pro-B-cell line Ba/F3; endogenous in cells; host or cells: 32D (murine myeloid) and Ba/F3 (murine pro-B)
T4 sequence (Q64261 whole entry): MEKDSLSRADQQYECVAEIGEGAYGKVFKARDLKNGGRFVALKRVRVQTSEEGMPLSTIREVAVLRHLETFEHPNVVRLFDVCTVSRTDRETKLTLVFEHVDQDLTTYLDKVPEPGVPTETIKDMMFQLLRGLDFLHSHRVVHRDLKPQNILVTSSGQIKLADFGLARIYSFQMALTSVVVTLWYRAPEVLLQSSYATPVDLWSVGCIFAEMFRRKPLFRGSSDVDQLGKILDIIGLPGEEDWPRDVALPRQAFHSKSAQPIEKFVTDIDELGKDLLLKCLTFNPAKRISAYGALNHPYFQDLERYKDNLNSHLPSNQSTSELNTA
Text: When bound to IMiDs, human CRBN induces the recruitment of the neosubstrates IKZF1 and IKZF3 via a Val-388 interaction,[53],[55] leading to their subsequent proteasomal degradation. […] The previously reported BRD4 degrader dBET1 was capable of binding to murine CRBN and performed as an active PROTAC in murine cells.[57],[58] To test whether our CRBN-based degrader 11 maintains CDK6 degradation across different species, we performed western blotting experiments with the murine myeloid 32D cell line and the murine pro-B-cell line Ba/F3 (Fig. 2A). […] While the activity of BSJ-03-123 (8) was attenuated at this concentration, 11 mediated on-target effects at concentrations as low as 10 nM (Fig. 2B).
Fig. 2 CDK6 degradation by CRBN-based degrader 11 is conserved in murine cell lines. (A) Human cell lines MM.1S and murine cell lines 32D and Ba/F3 were treated with vehicle, pomalidomide (POM), CDK6-selective degrader BSJ-03-123 (8), negative control 21, or PROTAC 11 at 0.1 μM for 16 h; (B) CDK6-degradation is induced in a dose-dependent manner in murine cells. Murine cell lines 32D and Ba/F3 were treated with PROTAC 11 at indicated concentrations for 16 h.
as §2
After respective designated treatments, cells were washed with 1× PBS and lysed in IP lysis buffer (Pierce) containing HALT protease and phosphatase inhibitor cocktail (Thermo Scientific). Sodium dodecyl sulfate-polyacrylamide gel electrophoresis (SDS-PAGE) was performed with 5–20 µg of protein loaded per sample. Gel electrophoresis was carried out at a constant voltage. Proteins were transferred onto Immobilon-P transfer membranes (Millipore). Membranes were blocked with 5% milk in Tris Buffered Saline with 0.05% Tween 20 (TBS-T) followed by overnight incubation at 4 °C with shaking in primary antibodies diluted in 5% BSA in TBS-T. After incubation with respective secondary HRP-conjugated antibodies diluted in 5% milk in TBST, detection of proteins was performed using either WesternBright ECL HRP substrate or WesternBright Sirius HRP substrate (Advansta). Chemiluminescence was detected with ChemiDoc™ XRS+ System (Bio-Rad). For further detection of other proteins on the same membrane, membranes were subjected to incubation in Restore Western Blot Stripping Buffer, followed by re-blocking, and further probing of proteins was carried out. Quantification was performed using ImageJ (National Institutes of Health). […]

[4] = Susceptibility to hydrolysis in buffer, LC/MS; type: physicochemical; conditions: 37 °C
Protocol: Next, we investigated the persistence of CDK6 degradation after single drug exposure. […] The differences were even more pronounced when conducting a drug washout-step, showing that while BSJ-03-123 kept CDK6 protein below 50% for a maximum of 6 h, CDK6 degradation mediated by PROTACs 27 and 34 was more persistent and stable for up to 72 h (Fig. 4E and S10, ESI ^†). […] Since these degraders mainly differ in the ligase-binding part, we hypothesized that the deviations in the long-term experiments (Fig. 5A) are due to chemical inactivation of the CRBN ligand. We then tested compounds 27, 34 (VHL-based) and BSJ-03-123 (8, CRBN-based) for susceptibility to hydrolysis. These PROTACs were incubated in two different buffers for 24 h at 37 °C and aliquots were analysed by LC/MS.
Fig. 5 (A) Quantification of long-term treatment experiments (see Fig. S9, ESI ^†) and (B) drug stability data at pH 1 and pH 7.4. Acetonitrile solutions of the PROTACs were mixed with two different buffers and incubated for 24 hours at 37 °C. Subsequently, aliquots were analysed by LC/MS and normalized to acetonitrile solutions.

[5] = design: method as in earlier work; conditions: calibration compounds; cited from earlier work
MDA-MB-231 cells = experiment: Cell viability assay (CellTiter-Glo), MDA-MB-231 breast cancer cells; type: cell-based, human; conditions: 96 h
Protocol: Breast cancer cell lines:
To access the compound effect on cell viability, cells were plated in 384-well tissue culture-treated plates (Greiner Bio One). Twenty-four hours later, tested compounds were added into culture to the desired concentrations. Cell viability was measured by using CellTiter-Glo® Luminescent Cell Viability Assay (Promega) at day 4 or day 7 post-treatment and normalized by non-treated controls. […]
Dose response curves were modeled and plotted by using GraphPad Prism software (GraphPad Software). Statistical analysis was performed using GraphPad Prism software (GraphPad Software).
Variance of biological replicates is represented as the standard error of the mean (SEM) or as the […]

| SMILES | chromatographic logD [1] | remaining activity at 0.1 µM (CDK4) [%] | Selectivity ratio D CDK4/D CDK6 for the degradation of CDK6 over CDK4 (CDK6 [2]) | remaining activity at 0.1 µM (CDK6 [2]) [%] | remaining activity at 0.1 µM (IKZF1) [%] | further results |
| --- | --- | --- | --- | --- | --- | --- |
| CC(=O)c1c(C)c2cnc(Nc3ccc(N4CCN(CCOCCOCCOCCNC(=O)COc5cccc6c5C(=O)N(C5CCC(=O)NC5=O)C6=O)CC4)cn3)nc2n(C2CCCC2)c1=O (stereo not drawn) [8 (BSJ-03-123), BSJ-03-123, reference compound] | 2.5 | 27 | 4.9 | 5.5 | 82 | remaining activity at 1 µM (CDK6 [2]): 2.1%; Time CDK6 degradation persists (CDK6 protein below 50%) after drug washout (CDK6 [2]; 0.1 μM for 16 h, then washout with PBS): ≤ 6 h; Persistence of CDK6 degradation after single drug exposure (long-term treatment) (CDK6 [2]; no washout): began to recover after 24 h; CDK6 degradation in murine cells (CDK6 [3]; 32D and Ba/F3 cells, 0.1 μM): attenuated; Stability to hydrolysis at pH 1 ([4]; buffer pH 1, 24 h): stable; Stability to hydrolysis at pH 7.4 ([4]; buffer pH 7.4, 24 h): pronounced decomposition |
| COc1ccc([C@@H]2Sc3ccccc3N(CCN(C)C)C(=O)[C@@H]2OC(C)=O)cc1 [Diltiazem] | – | – | – | – | – | Lit. log D7.4 [5]: 2.70 |
| COCCc1ccc(OCC(O)CNC(C)C)cc1 (stereo not drawn) [Metoprolol] | – | – | – | – | – | Lit. log D7.4 [5]: –0.06 |
| CC1(C)C(C=C(Cl)Cl)C1C(=O)OCc1cccc(Oc2ccccc2)c1 (stereo not drawn) [Permethrin] | – | – | – | – | – | Lit. log D7.4 [5]: 6.50 |
| CC(=O)c1c(C)c2cnc(Nc3ccc(N4CCN(C(=O)CCCCCNc5cccc6c5C(=O)N(C5CCC(=O)NC5=O)C6=O)CC4)cn3)nc2n(C2CCCC2)c1=O (stereo not drawn) [compound 11] | 3.4 | 25 | 2.3 | 11 | 1 | CDK6 degradation in murine cells (CDK6 [3]; 32D and Ba/F3 cells, 0.1 μM): induced strong CDK6 degradation; Lowest concentration mediating on-target effects (CDK6 degradation) in murine cells (CDK6 [3]; 32D and Ba/F3 cells): 10 nM |

Second part, led by results:

| chromatographic logD [1] | remaining activity at 0.1 µM (CDK4) [%] | Selectivity ratio D CDK4/D CDK6 for the degradation of CDK6 over CDK4 (CDK6 [2]) | remaining activity at 0.1 µM (CDK6 [2]) [%] | remaining activity at 0.1 µM (IKZF1) [%] | SMILES | further results |
| --- | --- | --- | --- | --- | --- | --- |
| 5.4 | > 95 | – | 51 | 35 | CC(=O)c1c(C)c2cnc(Nc3ccc(N4CCN(C(=O)CCCCCOCCCCOCCCCOCCCCOCCCCCCNc5cccc6c5C(=O)N(C5CCC(=O)NC5=O)C6=O)CC4)cn3)nc2n(C2CCCC2)c1=O (stereo not drawn) [compound 19] | – |
| 3.7 | 86 | 5.4 | 16 | 5.8 | CC(=O)c1c(C)c2cnc(Nc3ccc(N4CCN(C(=O)CCCCCOCCOCCOCCOCCOCCOCCCCCCNc5cccc6c5C(=O)N(C5CCC(=O)NC5=O)C6=O)CC4)cn3)nc2n(C2CCCC2)c1=O (stereo not drawn) [compound 20] | – |
| 3.6 | 95 | – | > 95 | 93 | CC(=O)c1c(C)c2cnc(Nc3ccc(N4CCN(C(=O)CCCCCNc5cccc6c5C(=O)N(C5CCC(=O)N(C)C5=O)C6=O)CC4)cn3)nc2n(C2CCCC2)c1=O (stereo not drawn) [compound 21] | – |
| 3.3 | 12 | 4.1 | 2.9 | – | CC(=O)c1c(C)c2cnc(Nc3ccc(N4CCN(CCCCCCCC(=O)N[C@H](C(=O)N5C[C@H](O)C[C@H]5C(=O)NCc5ccc(-c6scnc6C)cc5)C(C)(C)C)CC4)cn3)nc2n(C2CCCC2)c1=O [compound 22] | remaining activity at 1 µM (CDK6 [2]): 4.1%; CDK6 degradation in murine cells (CDK6 [3]; Ba/F3 and 32D cells, 1 μM): pronounced CDK6 degradation |
| 3.2 | > 95 | – | > 95 | – | CC(=O)c1c(C)c2cnc(Nc3ccc(N4CCN(CCCCCCCC(=O)N[C@H](C(=O)N5C[C@@H](O)C[C@H]5C(=O)NCc5ccc(-c6scnc6C)cc5)C(C)(C)C)CC4)cn3)nc2n(C2CCCC2)c1=O [compound 26] | Inhibitory activity on cell viability relative to palbociclib (MDA-MB-231 cells): inhibitory activity comparable to palbociclib |
| 3 | 82 | – | > 95 | – | CC(=O)c1c(C)c2cnc(Nc3ccc(N4CCN(CCOCCOCCOc5cc(-c6scnc6C)ccc5CNC(=O)[C@@H]5C[C@H](O)CN5C(=O)[C@H](C(C)C)N5Cc6ccccc6C5=O)CC4)cn3)nc2n(C2CCCC2)c1=O [compound 32] | Inhibitory activity on cell viability relative to palbociclib (MDA-MB-231 cells): inhibitory activity comparable to palbociclib |
